Results reported in US9282759B2, “Composition including an unsaponifiable fraction” (LABORATOIRES EXPANSCIENCE, priority 2009, dated 2016).

System: PGE2 production of arthrosis chondrocytes
Experiment: PGE2 production of arthrosis chondrocytes (radioimmunoassay of culture media, per μg DNA)
Assay type: cell-based, human
Conditions: 10 μg/ml of the composition in culture medium, 48 h, chondrocytes of osteoarthritis patients, compared with basal conditions (9±4 pg PGE2 per μg DNA)
Protocol: Thin slices of cartilage of patients suffering from osteoarthritis were excised while avoiding the calcified layer. They were washed several times in DMEM medium containing HEPES, penicillin and streptomycin. The slices of cartilage were then cut into small fragments of a few cubic millimeters.
Chondrocytes were then isolated from the extracellular matrix by a succession of enzymatic digestions. The cartilage fragments were incubated at 37° C. under constant agitation in the basic medium with, successively, hyaluronidase, pronase E and finally with clostridial collagenase.
The cells were then filtered through a 70 μm nylon membrane, washed with DMEM and counted using a Neubauer plate. […]
The cultures were maintained at 37° C. in an atmosphere of 95% air and 5% CO2. At the end of the incubation period, the culture media were taken and stored at −20° C. until they were analysed. […]
Deoxyribonucleic acid (DNA) was quantified according to the technique of Labarca and Paigen (Labarca C. and Paigen K. A simple, rapid, and sensitive DNA assay procedure, Anal Biochem, 1980. 102: 344-52). This method is based on the principle of fluorescence emitted by a reagent, bis-benzimidazole, when it binds to DNA. […] After 1 h of incubation, the samples were read with a fluorometer using an excitation wavelength of 356 nm and an emission wavelength of 458 nm. […]

vitamin K2 [composition 4]
quantity of PGE2 produced: remains constant
